Source: patent publication US20180050993A1, “NOVEL FLUORINATED DERIVATIVES AS EGFR INHIBITORS USEFUL FOR TREATING CANCERS” (Trillium Therapeutics Inc., priority 2015, published 2018)
Where a name gives a salt, the structure may show the parent alone.

Legend:
Assay in all cases: NCI screening panel, growth %
Type in all cases: cell-based, human
UO-31 = conditions: Renal
Description: (§1) After 24 h, two plates of each cell line are fixed in situ with TCA, to represent a measurement of the cell population for each cell line at the time of drug addition (Tz). Experimental drugs are solubilised in dimethyl sulfoxide at 400-fold the desired final maximum test concentration and stored frozen prior to use. At the time of drug addition, an aliquot of frozen concentrate is thawed and diluted to twice the desired final maximum test concentration with complete medium containing 50 μg/ml gentamicin. Additional four, 10-fold or log serial dilutions are made to provide a total of five drug concentrations plus control. Aliquots of 100 μl of these different drug dilutions are added to the appropriate microtiter wells already containing 100 μl of medium, resulting in the required final drug concentrations.
(§2) Following drug addition, the plates are incubated for an additional 48 h at 37° C., 5% CO2, 95% air, and 100% relative humidity. For adherent cells, the assay is terminated by the addition of cold TCA (trichloroacetic acid). Cells are fixed in situ by the gentle addition of 50 μl of cold 50% (w/v) TCA (final concentration, 10% TCA) and incubated for 60 minutes at 4° C. The supernatant is discarded, and the plates are washed five times with tap water and air dried. Sulforhodamine B (SRB) solution (100 μl) at 0.4% (w/v) in 1% acetic acid is added to each well, and plates are incubated for 10 minutes at room temperature. After staining, unbound dye is removed by washing five times with 1% acetic acid and the plates are air dried. Bound stain is subsequently solubilised with 10 mM trizma base, and the absorbance is read on an automated plate reader at a wavelength of 515 nm. For suspension cells, the methodology is the same except that the assay is terminated by fixing settled cells at the bottom of the wells by gently adding 50 μl of 80% TCA (final concentration, 16% TCA). Using the seven absorbance measurements [time zero, […], control growth, (C), and test growth in the presence of drug at the five concentration levels (Ti)], the percentage growth is calculated at each of the drug concentration levels. Percentage growth inhibition is calculated as: [(Ti−Tz)/(C−Tz)]×100 for concentrations in which Ti>/=Tz and [(Ti−Tz)/Tz]×100 for concentrations in which Ti<Tz.
(§3) Three dose response parameters are calculated for each experimental agent. […] The drug concentration resulting in total growth inhibition (TGI) is calculated from Ti=Tz. […] Values are calculated for each of these three parameters if the level of activity is reached. However, if the effect is not reached or is exceeded, the value for that parameter is expressed as greater or less than the maximum or minimum concentration tested.

UACC-62 = conditions: Melanoma
Description: as §1, §2, §3

SK-MEL-28 = conditions: Melanoma
Description: as §1, §2, §3

SF-539 = conditions: CNS
Description: as §1, §2, §3

OVCAR-8 = conditions: Ovarian
Description: as §1, §2, §3

ACHN = conditions: Renal
Description: as §1, §2, §3

SR = conditions: Leukemia
Description: as §1, §2, §3

HT29 = conditions: Colon
Description: as §1, §2, §3

OVCAR-3 = conditions: Ovarian
Description: as §1, §2, §3

SW-620 = conditions: Colon
Description: as §1, §2, §3

MDA-MB-231/ATCC = conditions: Breast
Description: as §1, §2, §3

SN12C = conditions: Renal
Description: as §1, §2, §3

T-47D = conditions: Breast
Description: as §1, §2, §3

HOP-62 = conditions: NSCLC
Description: as §1, §2, §3

SF-268 = conditions: CNS
Description: as §1, §2, §3

UACC-257 = conditions: Melanoma
Description: as §1, §2, §3

IGROV1 = conditions: Ovarian
Description: as §1, §2, §3

HCT-15 = conditions: Colon
Description: as §1, §2, §3

MDA-MB-435 = conditions: Melanoma
Description: as §1, §2, §3

CCRF-CEM = conditions: Leukemia
Description: as §1, §2, §3

SF-295 = conditions: CNS
Description: as §1, §2, §3

NCI-H460 = conditions: NSCLC
Description: as §1, §2, §3

DU-145 = conditions: Prostate
Description: as §1, §2, §3

KM12 = conditions: Colon
Description: as §1, §2, §3

NCI-H522 = conditions: NSCLC
Description: as §1, §2, §3

SK-MEL-5 = conditions: Melanoma
Description: as §1, §2, §3

OVCAR-4 = conditions: Ovarian
Description: as §1, §2, §3

U251 = conditions: CNS
Description: as §1, §2, §3

PC-3 = conditions: Prostate
Description: as §1, §2, §3

A498 = conditions: Renal
Description: as §1, §2, §3

COLO 205 = conditions: Colon
Description: as §1, §2, §3

SK-MEL-2 = conditions: Melanoma
Description: as §1, §2, §3

786-0 = conditions: Renal
Description: as §1, §2, §3

NCI-H226 = conditions: NSCLC
Description: as §1, §2, §3

Molecule Fc1ccc(Nc2ncnc3cc(OCCOC(F)F)c(OCCOC(F)F)cc23)c(F)c1Cl [Compound 2D•HCl, N-(3-chloro-2,4-difluoro-phenyl)-6,7-bis[2-(difluoromethoxy)ethoxy]quinazolin-4-amine] has a Growth % (UO-31) of 15.03%, a Growth % (UACC-62) of 82.70% and a Growth % (SK-MEL-28) of 81.10%. The Growth % (SF-539) was 73.76%, the Growth % (OVCAR-8) was 69.11% and the Growth % (ACHN) was 17.88%. It also gave a Growth % (SR) of 75.96%, a Growth % (HT29) of 58.66% and a Growth % (OVCAR-3) of 60.72%. For the same molecule, the Growth % (SW-620) was 91.49%, the Growth % (MDA-MB-231/ATCC) was 65.62% and the Growth % (SN12C) was 59.26%. For the same molecule, the Growth % (T-47D) was 19.78%, the Growth % (HOP-62) was 64.36% and the Growth % (SF-268) was 70.93%. The Growth % (UACC-257) was 87.43%, the Growth % (IGROV1) was 6.79% and the Growth % (HCT-15) was 55.49%. For the same molecule, the Growth % (MDA-MB-435) was 56.24%, the Growth % (CCRF-CEM) was 75.53% and the Growth % (SF-295) was 76.73%. The Growth % (NCI-H460) was 85.74%, the Growth % (DU-145) was 35.29% and the Growth % (KM12) was 85.84%. The Growth % (NCI-H522) was 24.07%, the Growth % (SK-MEL-5) was 74.60% and the Growth % (OVCAR-4) was 0.00%. The Growth % (U251) was 72.65%, the Growth % (PC-3) was 65.70% and the Growth % (A498) was 13.11%. It also gave a Growth % (COLO 205) of 77.41%, a Growth % (SK-MEL-2) of 79.82% and a Growth % (786-0) of 60.48%. It also gave a Growth % (NCI-H226) of 84.65%.
